In article PMC9861180, “Nintedanib-αVβ6 Integrin Ligand Conjugates Reduce TGFβ-Induced EMT in Human Non-Small Cell Lung Cancer” (International Journal of Molecular Sciences, 2023):
“Also recorded” adds a separate entry of the source.

Legend:
E-cadherin = E-cadherin expression, Western blot; format: cell-based, human; conditions: TGFβ-treated A549 cells, 5 μM, 24 h
Experimental: Left panel, representative Western blot of E-cadherin protein expression.
Western blot analysis was performed on whole-cell lysates of A549 cells, exposed for 48 h to TGFβ treatment and subsequently exposed to 5 µM concentrations of different compounds. After 24 h incubation, media were rapidly removed and cell monolayers were lysed as previously described in RIPA lysis buffer, with the addition of proteinase inhibitor cocktail (04693124001 Roche Merk Life Science S.r.l., Milano, Italy) for 30 min in ice [35]. Protein content was quantified, and forty-fifty micrograms of total proteins were separated on Bolt® Bis-Tris Plus gels 4–12% (Life Technologies, Monza, Italy). Fractionated proteins were transferred from the gel to a PVDF nitrocellulose membrane using iBlot 2 system (Life Technologies, Monza, Italy). Membranes were blocked for 5 min at room temperature, with EveryBlot Biorad blocking buffer (Life Technologies, Monza, Italy). Subsequently, the membranes were probed at 4 °C overnight with appropriate primary antibodies diluted in a solution of 1:1 Odyssey blocking buffer/T-PBS buffer, washed four times with PBS-Tween 0.1% solution, and probed with the secondary IRDye antibodies according to manufacturering instructions. The protein bands were analyzed by the Odyssey Infrared Imaging System (Lycor Bioscience) using software for protein quantification. […]

[1] = system: tumor spheroids of TGFβ-treated A549 cells and murine L929 fibroblasts; experiment: Inhibition of 3D tumor spheroid growth; format: cell-based, human; conditions: 5 µM, 72 h, vs untreated spheroids
Experimental: Heterogeneous spheroids of tumor cells and fibroblasts were generated using the hanging drop technique to mimic the complex three-dimensional environment of tumor tissues. […] Next, the fluorescence intensities associated with each cell population were analyzed as previously described.
Hanging drop tumor spheroids were prepared starting from 1:1 mixed cell population (1000 cells/25μL) of TGF𝛽-treated A549 cells and murine L929 fibroblasts. […] (C) Quantitative analysis of inhibition of 3D growth and (D) 3D spheroid internalization of the compounds after 72 h exposure. Data are representative of three independent experiments (n = 6) and expressed as means ± SEM. * p < 0.05 vs. untreated spheroids.
A549 cells, exposed for 48 h to TGFβ treatment, were mixed in a 1:1 ratio with murine L929 fibroblast (40,000/mL) in order to obtain 3D multicellular tumor spheroids (MCTS) resembling cellular heterogenicity of the neoplastic lesion. […] After one week, multicellular tumor spheroids were completely formed. Tumor spheroids were next used in different experimental procedures. […] For 3D growth inhibition, spheroids were placed on 2% agarose coated dishes in complete medium containing the different treatments at 5 µM concentration. Spheroid areas were analysed and compared to time 0 and used to evaluate the inhibition of 3D growth (yellow lines). Images of all spheroids were taken daily using the EVOS XL Core Imaging System with a 10x objective (Thermofisher Scientific, Waltham, MA, USA ). All images were analysed using the open-source software ImageJ (1.52a, National Institutes of Health, Bethesda, MD, USA).

TGFβ-treated A549 cells [2] = experiment: Invasion assay through fibronectin-coated filters; format: cell-based; conditions: Homo sapiens, 24 h, read-out: migration inhibition (invasiveness) with respect to control
Experimental: The first assay envisaged the evaluation of cellular invasiveness of TGFβ-treated A549 cells by measuring the capacity of cells to migrate through fibronectin-coated filters.
Cells were allowed to migrate towards fibronectin-coated filters (10 μg/μL). Right panel, quantification of invasiveness. Data are percentages of migrated cells compared to untreated cells and expressed as mean value ± SEM of at least three independent experiments. * p < 0.05 and ** p < 0.001 vs. untreated cells. […] Experiments were performed at least three times.
Invasiveness of A549 cells was determined in vitro on fibronectin-precoated polycarbonate inserts (Sarstedt 83.3932.800, 8µm pore size, 0.3 cm^2 growth surface). Briefly, 50 µL of 10 μg/mL of fibronectin solution were seeded on each insert and allowed to dry in sterile conditions (1.6 µg/cm^2). A549 human lung carcinoma cells were grown in the presence of TGFβ for 48 h. After incubation, 3.5 × 10^4 cells were exposed to the different compounds, in serum-free medium (at 5 µM concentration), seeded in the upper compartment of the insert, and were free to perform in the absence of any chemoattractant. Inserts were incubated for 24 h at 37 °C in 10% CO2 in air. […] Photographs of randomly chosen fields were taken, and migrated cells were counted in 4 field/photograph.

TGFβ-treated A549 cells [3] = experiment: F-actin cytoskeleton by confocal analysis (rhodamine-phalloidin); format: cell-based, human; conditions: 5 μM, 24 h
Experimental: After incubation, cells were fixed and processed for fluorescence confocal imaging. The cell cytoskeleton was stained with rhodamine-conjugated phalloidin. Image dimensions: 180 × 180 μm, scale bar 50 μm. Experiments were performed at least three times. (C) Quantification of disassembled cytoskeleton expressed as the percentage of cells with point-like fluorescence signals/total cells per field. Data are representative of three independent experiments. * p < 0.05, and ** p < 0.001 vs. TGFβ treated cells.
A549 cells, exposed for 48 h to TGFβ treatment, were grown on fibronectin-coated (10 µg/mL) (sc-29011 SantaCruz, D.B.A., Milano Italy) glass coverslips in 6-well plates for 2 h, after which adherent cells were exposed to the different treatments, in the absence of FCS, for 24h. After incubation, the culture medium was removed, cells were washed with PBS, and fixed 30 min at 4 °C with 3.7% paraformaldehyde. Cells were permeabilized for 15 min with PBS 0.1% Tryton X-100 at room temperature, and then incubated 1 h at room temperature with blocking buffer (0.1% Tryton X-100 and 5.5% horse serum PBS). […] A single composite image was obtained by superimposition of 20 optical sections for each sample analyzed.

TGFβ-treated A549 cells [4] = experiment: Clonogenic assay; format: cell-based, human; conditions: sorted fluorescence-positive TGFβ-treated A549 cells after 5 μM 24 h; 2 weeks growth
Experimental: (A) After incubation, cells were sorted (BDMelody) and isolated cells from the selected population (indicated as P4) were seeded at low density (1000 cells/6 well petri dishes). (B) Number of colonies obtained after 2 weeks growth in standard media. (C) Quantification of colonies.
A549 lung adenocarcinoma cells were grown in the presence of TGFβ for 48 h. […] At the end of the incubation, cells were sorted using a fluorescence activated cell sorter (Melody, Becton Dickinson, Bioscience, Eysins, Switzerland). […] Activation of the labelled cells was provided by the violet laser (ex = 405 nm) while sorting of the activated cells was performed by their emitted wavelength at 480 nm (detection filter 450/50, using the BV480 channel). Isolated cells (1 × 10^3) were seeded in a FN-coated 6 well dishes. These isolated cells were cultured for 2 weeks. The medium was changed every 4 days until the emergence of colonies. The colonies were fixed and stained with Diff-Quick solution.

TGFβ-treated A549 cells [5] = experiment: cells; format: cell-based, human
Experimental: A549 cell viability was assessed using MTT (3-(4,5-dimethylthiazol-2-yl)-2,5-diphenyltetrazolium bromide) tetrazolium reduction assay (M5655, Sigma Aldrich, Milan, Italy), as described in [58]. Briefly, A549 cells were treated for 48 h in complete medium with TGFβ (10 ng/mL). Next, cells (2.5 × 10^3) were plated into 96-multiwell plates in 100 µL of complete medium. After adhesion, the compounds were added to the medium at different concentrations. After 24 h exposure, the medium was replaced with 100 µL MTT reagent in each well, and plates were incubated at 37 °C. After 2 h, MTT was removed, and the blue MTT–formazan product was solubilized with dimethyl sulfoxide (DMSO, Sigma Aldrich). The absorbance of the formazan solution was read at 595 nm using the microplate reader (Bio-Rad, Milan, Italy). Inhibition of cell proliferation was calculated by the IC50 calculator (AAT Bioquest, Inc., Pleasanton, CA, USA, https://www.aatbio.com/ (accessed on 1 July 2022)).

[6] = system: α-smooth muscle actin (α-SMA); experiment: α-smooth muscle actin protein expression, Western blot; format: cell-based, human; conditions: TGFβ-treated A549 cells, 5 μM, 24 h
Experimental: Data are expressed as means ± SEM of fold increment compared to untreated cells normalized to α-tubulin.
Western blot analysis was performed on whole-cell lysates of A549 cells, exposed for 48 h to TGFβ treatment and subsequently exposed to 5 µM concentrations of different compounds. After 24 h incubation, media were rapidly removed and cell monolayers were lysed as previously described in RIPA lysis buffer, with the addition of proteinase inhibitor cocktail (04693124001 Roche Merk Life Science S.r.l., Milano, Italy) for 30 min in ice [35]. Protein content was quantified, and forty-fifty micrograms of total proteins were separated on Bolt® Bis-Tris Plus gels 4–12% (Life Technologies, Monza, Italy). Fractionated proteins were transferred from the gel to a PVDF nitrocellulose membrane using iBlot 2 system (Life Technologies, Monza, Italy). Membranes were blocked for 5 min at room temperature, with EveryBlot Biorad blocking buffer (Life Technologies, Monza, Italy). […] The protein bands were analyzed by the Odyssey Infrared Imaging System (Lycor Bioscience) using software for protein quantification. […]

[7] = system: tumor spheroids of TGFβ-treated A549 cells and murine L929 fibroblasts; experiment: Tumor spheroid 2D flat surface migration and growth; format: cell-based, human; conditions: 5 µM, fibronectin-coated flat surface
Experimental: Heterogeneous spheroids of tumor cells and fibroblasts were also used to evaluate the ability of the compounds to inhibit 2D flat surface migration and growth once the spheroids were allowed to attach to a suitable surface (Figure 8).
Hanging drop tumor spheroids were allowed to spread on a 2D fibronectin-coated flat surface. […] Data are representative of three independent experiments (n = 6) and expressed as means ± SEM. * p < 0.05 vs. untreated spheroids.
A549 cells, exposed for 48 h to TGFβ treatment, were mixed in a 1:1 ratio with murine L929 fibroblast (40,000/mL) in order to obtain 3D multicellular tumor spheroids (MCTS) resembling cellular heterogenicity of the neoplastic lesion. […] After one week, multicellular tumor spheroids were completely formed. Tumor spheroids were next used in different experimental procedures. We evaluated 2D flat surface inhibition of migration and growth, and the inhibition of 3D growth. For 2D flat surface migration and growth inhibition assays, the spheroids were placed on regular culture dishes and allowed to spread and grow in complete medium containing different compounds at 5 µM concentration. The areas of cell spreading were used as parameters for migration (red lines), while the areas of the spheroid core were used as parameters for 2D growth (yellow lines). For 3D growth inhibition, spheroids were placed on 2% agarose coated dishes in complete medium containing the different treatments at 5 µM concentration. Spheroid areas were analysed and compared to time 0 and used to evaluate the inhibition of 3D growth (yellow lines). Images of all spheroids were taken daily using the EVOS XL Core Imaging System with a 10x objective (Thermofisher Scientific, Waltham, MA, USA ). All images were analysed using the open-source software ImageJ (1.52a, National Institutes of Health, Bethesda, MD, USA).

K562 cells = experiment: Cell internalization by flow cytometry, αvβ6-negative K562; format: cell-based, human; conditions: 5 µM
Text: In these cells, 74% of cells were positive after exposure to compound 1, whilst after exposure to compounds 2 and 3, positive cells ranged between 43.8 and 49% (Figure 4A). […] In addition, we investigated the internalization in αvβ6-negative K562 cells. […] Finally, two other αvβ6 integrin-expressing cell lines were used to evaluate the internalization of these compounds, namely the human melanoma cells SSM2c (Figure S4B) and the L929 murine fibroblasts (Figure S5B).
Briefly, A549 cells were seeded in standard medium (2 × 10^6 cells/100 mm Petri dishes, Sarstedt), and after adhesion, cells were grown in the presence or in the absence of TGFβ (10 ng/mL) for 48 h. […] After 24 h, cells were gently detached using Accutase (ECB3056D, Euroclone, Pero, Milano, Italy) or trypsin and the fluorescence, associated with different cell populations, was evaluated using the BV480 channel of the FACSCanto BD instrument (using 405 nm laser). Untreated cells were used as the negative control. The same procedure was applied to evaluate the internalization in K562, SSM2c, and L929 cells.
3. Expression of αvβ6 integrin receptor in K562 human erythroleukemic cells and internalization of conjugated compounds or nintedanib
Figure S3. Expression of αvβ6 integrin receptor in K562 human erythroleukemia cells (A). […]
assessed by flow cytometry measurements at 5 µM concentration. […]
as assessed by flow cytometry. […]

Structure (SMILES): COC(=O)c1ccc2c(c1)NC(=O)/C2=C(\Nc1ccc(N(C)C(=O)CN2CCN(C)CC2)cc1)c1ccccc1 [nintedanib, Nintedanib]
- E-cadherin expression (E-cadherin): enhanced
- inhibition of 3D spheroid growth [1]: inhibited significantly
- inhibition at 5 µM (TGFβ-treated A549 cells [2]): 80%
- F-actin bundle disassembly (TGFβ-treated A549 cells [3]): more significant reduction in the assembly of F-actin filaments
- reduction of colony formation compared to untreated cells (TGFβ-treated A549 cells [4]): 50%
- inhibition of cell proliferation (in words) (TGFβ-treated A549 cells [5]; 0.5-50 μM, 24 h (Figure S8)): concentration-dependent inhibition
- IC50 (TGFβ-treated A549 cells [5]; Homo sapiens, A549, 24 h, read-out: IC50, inhibition of cell proliferation (MTT)): 7.5 µM
- inhibition of cell proliferation (in words) (TGFβ-treated A549 cells [5]; TGFβ-treated A549 cells, concentrations >10 μM): almost completely inhibited
- α-SMA protein expression [6]: reduced by half
- 2D flat surface migration of tumor spheroids [7]: significantly impaired; also recorded: strong inhibition
- 2D growth of tumor spheroids (spheroid core) [7]: significantly impaired
- fluorescence-positive cells (compound internalization) (K562 cells): 95–100%
